Data: patent US20120265121A1, “PHTHALOCYANINE-BASED ANTIFUNGAL AGENTS” (CASE WESTERN RESERVE UNIVERSITY, priority 2011, published 2012)

Experiments:
[1] = system: C. albicans (strain SC-5134); test: Colony forming unit (CFU) phototoxicity assay; format: cell-based, Candida albicans
Experimental: Colonies Formation Assay: Briefly, the 1 ml of each treatment condition was diluted into 1:10,000, 1:50,000 or 1:100,000 and plated 100 μL onto Sabouraud dextrose agar plate (Becton Dickinson, New Jersey, USA). All plates were incubated at 37° C. and colonies were imaged and counted the following day for each plate/condition.
Pc 4-Photodynamic Treatment Conditions: The phthalocyanine photosensitizer Pc 4 was kindly provided by Dr. Malcolm E. Kenney (Department of Chemistry, Case Western Reserve University, Cleveland, Ohio, USA). Stock solutions (0.5 mM) of Pc 4 were prepared in N′,N′-dimethylformamide (DMF, ThermoFisher, Waltham, Mass., USA) and stored at 4° C. in the dark. C. albicans cultures were incubated with Pc 4 concentrations ranging from 0.1 to 1.0 μM in 1× PBS containing 10% FBS for at least 1 hr at 37° C. in the dark and subsequently irradiated with red light using a light-emitting diode array (EFOS, Mississauga, Ontario, Canada) at a fluence ranging from 1.0 to 2.0 J/cm^2 (1.0 mW/cm^2, λmax ˜670-675 nm) at room temperature.
Colony forming unit (CFU) phototoxicity assay: CFU assay was done as described by Chandra et al. with minor modifications. […] After 24 hours, colonies were counted by eye, and all the percentage of surviving cells from the Pc 4-PDT cultures was normalized against that of cultures exposed to Pc 4 or light alone. […]

[2] = system: C. albicans (strain SC-5134); test: XTT reduction metabolic activity assay; format: cell-based, Candida albicans
Experimental: Metabolic Activity Assay: XTT reduction assays were performed according to the procedure of Chandra et al. Chandra et al., Nature Protocol. 3(12): 1909-2 (2008). Briefly, in the dark, aliquots of 2 ml of cells were treated with 200 nM of Pc 4 in 10% FBS standard growth medium in a 37° C. shaker. The next day, the cells were photoirradiated with red light using a light-emitting diode array (EFOS, Mississauga, Ontario, Canada) at a fluence of 200, 500, 1000 and 2000 mil/cm^2 (1 milliwat/cm^2, ymax ˜670-675 nm) at room temperature. For negative controls, a 2 ml aliquot was not photoirradiated and a 2 ml aliquot simply was loaded overnight with an appropriate amount of N′,N′-dimethylformamide and then photoirridated with the highest fluence the next day. For positive control, either cells were treated with 30% ethanol or 1 uM of Thapsigargin. […] One ml of each treatment condition was used to incubate with XTT (final concentration 1 mg/ml) and menadione (final concentration 1 mM) for 5 hours in the dark and then transferred to 1 ml plastic cuvette for absorbance measurement. Colorimetric changes, which reflect the viability of the cells given different treatment conditions, were measured at 492-nm using a spectrophotometer (Spectronic Genesys™ 5, Analytical Instrument, Golden Valley, Minn., USA). […]

[3] = system: T. rubrum; test: Clonogenic (CFU) assay after Pc 4-PDT; format: cell-based, Trichophyton rubrum; conditions: 0-2 μM Pc 4, 2.0 J/cm^2
Experimental: Cells were treated with 0-2 μM of Pc 4 for at least 2 hours before being photoirradiated with 2.0 J/cm^2.
Mycologic cure remains the gold-standard in the evaluation of antifungal therapies and leads to lower recurrence rates. […] Immediately after photoirradiation, treated and control samples were diluted and spread 100 μL onto Sabouraud potato agar plates (Becton Dickinson, New Jersey, USA). All plates were incubated at 28° C. and colonies were counted within 5 days.

[4] = light dose 50 J/cm^2; cited from earlier work

With CN(C)CCC[Si](C)(C)O[Si]1(O)n2c3c4ccccc4c2N=C2N=C(N=c4c5ccccc5c(n41)=NC1=NC(=N3)c3ccccc31)c1ccccc12 (stereo not shown) [Pc 4, HOSiPcOSi(CH3)2(CH2)3N(CH3)2] as the compound, how does the “cell killing / reduction of cell survival (CFU)” value ([1]; 1.0 μM Pc 4, light at 2.0 J/cm^2 (670-675 nm)) read?
The value was 4 logs.

And the “effect of photosensitizer alone on cell proliferation and cell death” value ([1]; highest dose of Pc 4, no light, compared to untreated cells)?
Its value is “neither the highest dose of photosensitizer alone nor light alone affected cell proliferation and cell death”.

And the “metabolic activity (XTT, percent viability), FIG. 1” value ([2]; 200 nM Pc 4 + 0.2-2.0 J/cm^2)?
Its value is “impairs fungal metabolic activity”.

And the “reduction of metabolic activity (XTT)” value ([2]; highest Pc 4-PDT dose (1.0 μM, 2.0 J/cm^2), within an hour following photoirradiation)?
The value was roughly 50%.

And the “survival (CFU)” value ([3]; terbinafine-resistant strain MRL666)?
Its value is “dose-dependent decrease in the survival”.

What about the “survival (CFU)” value ([3]; terbinafine-sensitive strain 23013) of the same compound?
The value was “dose-dependent decrease in the survival”.

What about the tolerability [4] of the same compound?
Its tolerability is “well-tolerated”.
